Results as given in patent US10253002B2, “Compounds and methods of treating infections” (Neoculi Pty Ltd., priority 2013, dated 2019).
“And” between values parts separate entries of the source, which are not always exact repeats. Identical values can stand only once.

Columns and labels:
Test in all cases: Broth microdilution MIC, Example 7 (NCL812 and analogues)
[1] = test system: Pseudomonas aeruginosa; assay type: cell-based; details: 24 hours; 1st and 2nd replicate rows
[2] = test system: VRE; assay type: cell-based, Enterococcus spp.; details: for MIC (μg/ml) at 24 hours, VRE 1: isolate VRE 1; for MIC (μg/ml) at 24 hours, VRE 1 / MIC (μg/ml) at 24 hours, VRE 2: 1st and 2nd replicate rows; for MIC (μg/ml) at 24 hours, VRE 2: isolate VRE 2
Description: (§1) Minimum inhibitory concentrations (μg/ml) were determined using the broth microdilution method recommended by the Clinical and Laboratory Standards Institute (CLSI). MIC breakpoints were determined by visual assessment and then confirmed using an ELISA plate reader, measuring absorbance levels at 600 nm. Bacterial growth (turbidity) in the wells with antimicrobial was compared with the amount of growth (turbidity) in the growth-control well (containing no antimicrobial). All isolates were tested in duplicate, if there was a difference of greater than one two-fold dilution in the results, the test was repeated a third time. The purity of the isolates was closely monitored during testing by subculturing the prepared bacterial inoculum onto SBA (sheep blood agar). […] The MIC50, MIC20 and MIC range (minimum and maximum) were calculated for each of the bacterial groups.
(§2) MICs were determined against two MRSA strains, two VRE strains and one strain each of E. coli and Pseudomonas aeruginosa.

[3] = test system: Escherichia coli; assay type: cell-based; details: 24 hours; 1st and 2nd replicate rows
[4] = test system: MRSA; assay type: cell-based, Staphylococcus aureus; details: 24 hours, 1st and 2nd replicate rows; for MIC (μg/ml) at 24 hours, MRSA 1: isolate MRSA 1; for MIC (μg/ml) at 24 hours, MRSA 2: isolate MRSA 2
Description: as §1, §2

Row | Compound | MIC (μg/ml) at 24 hours, P. aeruginosa [1] | MIC (μg/ml) at 24 hours, VRE 1 [2] | MIC (μg/ml) at 24 hours, VRE 2 [2] | MIC (μg/ml) at 24 hours, E. coli [3] | MIC (μg/ml) at 24 hours, MRSA 1 [4] | MIC (μg/ml) at 24 hours, MRSA 2 [4] | activity against VRE among analogues ([2]; MIC testing, two VRE strains)
1 | Cl.N=C(NN=Cc1cccc(C(F)(F)F)c1)NN=Cc1cccc(C(F)(F)F)c1 [NCL037] | >128 µg/mL | >126 µg/mL and >128 µg/mL | >128 µg/mL | >128 µg/mL | >128 µg/mL | >128 µg/mL | 
2 | Cl.N=C(N)N/N=C/c1ccccc1C(F)(F)F [NCL042] | >128 µg/mL | >128 µg/mL | >128 µg/mL | >128 µg/mL | >128 µg/mL | >128 µg/mL | 
3 | Cc1ccccc1/C=N/NC(=N)N.Cl [NCL045] | >128 µg/mL | >128 µg/mL | >128 µg/mL | >128 µg/mL | >128 µg/mL | >128 µg/mL | 
4 | Cc1cccc(/C=N/NC(=N)N)c1.Cl [NCL046] | >128 µg/mL | >128 µg/mL | >128 µg/mL | >128 µg/mL | >128 µg/mL | >128 µg/mL | 
5 | NC(=O)N/N=C/c1ccccc1Cl [NCL047] | >128 µg/mL | >128 µg/mL | >128 µg/mL | >128 µg/mL | >128 µg/mL | >128 µg/mL | 
6 | NC(=O)N/N=C/c1ccccc1F [NCL048] | >128 µg/mL | >128 µg/mL | >128 µg/mL | >128 µg/mL | >128 µg/mL | >128 µg/mL | 
7 | N#Cc1ccc(/C=N/NC(N)=O)cc1 [NCL049] | >128 µg/mL | >128 µg/mL | >128 µg/mL | >128 µg/mL | >128 µg/mL | >128 µg/mL | 
8 | N#Cc1ccccc1/C=N/NC(N)=O [NCL050] | >128 µg/mL | >128 µg/mL | >128 µg/mL | >128 µg/mL | >128 µg/mL | >128 µg/mL | 
9 | N#Cc1cccc(/C=N/NC(N)=O)c1 [NCL051] | >128 µg/mL | >128 µg/mL | >128 µg/mL | >128 µg/mL | >128 µg/mL | >128 µg/mL | 
10 | NC(=O)N/N=C/c1cccc(Cl)c1 [NCL055] | >128 µg/mL | >128 µg/mL | >128 µg/mL | >128 µg/mL | >128 µg/mL | >128 µg/mL | 
11 | NC(=O)N/N=C/c1ccc(F)cc1 [NCL056] | >128 µg/mL | >128 µg/mL | >128 µg/mL | >128 µg/mL | >128 µg/mL | >128 µg/mL | 
12 | NC(=O)N/N=C/c1cccc(F)c1 [NCL057] | >128 µg/mL | >128 µg/mL | >128 µg/mL | >128 µg/mL | >128 µg/mL | >128 µg/mL | 
13 | COc1ccc(/C=N/NC(N)=O)cc1 [NCL058] | >128 µg/mL | >128 µg/mL | >128 µg/mL | >128 µg/mL | >128 µg/mL | >128 µg/mL | 
14 | COc1cccc(/C=N/NC(N)=O)c1 [NCL059] | >128 µg/mL | >128 µg/mL | >128 µg/mL | >128 µg/mL | >128 µg/mL | >128 µg/mL | 
15 | NC(=O)N/N=C/c1ccccc1C(F)(F)F [NCL060] | >128 µg/mL | >128 µg/mL | >128 µg/mL | >128 µg/mL | >128 µg/mL | >128 µg/mL | 
16 | CC(=NNC(=N)NN=C(C)c1ccc(C(F)(F)F)cc1)c1ccc(C(F)(F)F)cc1.Cl [NCL061] | >128 µg/mL | >128 µg/mL | 8 µg/mL | >128 µg/mL | >128 µg/mL | >128 µg/mL | greatest activity
17 | FC(F)(F)c1ccc(C=NNC(=S)NN=Cc2ccc(C(F)(F)F)cc2)cc1 [NCL063] | >128 µg/mL | >128 µg/mL | >128 µg/mL | >128 µg/mL | >128 µg/mL | >128 µg/mL | 
18 | N#Cc1ccccc1C=NNC(=S)NN=Cc1ccccc1C#N [NCL064] | >128 µg/mL | >128 µg/mL | >128 µg/mL | >128 µg/mL | >128 µg/mL | >128 µg/mL | 
